According to PubChem BioAssay (NCI):
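GI50: concentration for 50% inhibition of growth. TGI is the concentration that stops growth completely.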

Legend:
Test in all cases: NCI tumour cell line growth inhibition, 384-well format
NCI-H322M lung = test system: NCI-H322M lung
DU-145 prostate = test system: DU-145 prostate
HOP-92 NSCLC = test system: HOP-92 NSCLC
NCI-H23 lung = test system: NCI-H23 lung
OVCAR-5 ovarian = test system: OVCAR-5 ovarian
SNB-75 CNS = test system: SNB-75 CNS
HT29 colon = test system: HT29 colon
HCT-116 colon = test system: HCT-116 colon
NCI-H460 NSCLC = test system: NCI-H460 NSCLC
HCT-15 colon = test system: HCT-15 colon
IGROV1 ovarian = test system: IGROV1 ovarian
TK-10 renal = test system: TK-10 renal
A549 NSCLC = test system: A549 NSCLC
NCI-H226 lung = test system: NCI-H226 lung
HL-60(TB) leukemia = test system: HL-60(TB) leukemia
LOX IMVI melanoma = test system: LOX IMVI melanoma
SN12C renal = test system: SN12C renal
RPMI-8226 leukemia = test system: RPMI-8226 leukemia
MALME-3M melanoma = test system: MALME-3M melanoma
OVCAR-3 ovarian = test system: OVCAR-3 ovarian
KM12 colon = test system: KM12 colon
EKVX NSCLC = test system: EKVX NSCLC
SNB-19 CNS = test system: SNB-19 CNS
HS 578T breast = test system: HS 578T breast
SW-620 colon = test system: SW-620 colon
UO-31 renal = test system: UO-31 renal
A498 renal = test system: A498 renal
UACC-257 melanoma = test system: UACC-257 melanoma
SK-MEL-5 melanoma = test system: SK-MEL-5 melanoma
T-47D breast = test system: T-47D breast
CAKI-1 renal = test system: CAKI-1 renal
SF-539 CNS = test system: SF-539 CNS
ACHN renal = test system: ACHN renal
MOLT-4 leukemia = test system: MOLT-4 leukemia
K-562 leukemia = test system: K-562 leukemia
SF-268 CNS = test system: SF-268 CNS
M14 melanoma = test system: M14 melanoma
OVCAR-8 ovarian = test system: OVCAR-8 ovarian
HCC-2998 colon = test system: HCC-2998 colon
BT-549 breast = test system: BT-549 breast
NCI/ADR-RES ovarian = test system: NCI/ADR-RES ovarian
OVCAR-4 ovarian = test system: OVCAR-4 ovarian
COLO 205 colon = test system: COLO 205 colon
MCF7 breast = test system: MCF7 breast
U251 glioblastoma = test system: U251 glioblastoma
MDA-MB-468 breast = test system: MDA-MB-468 breast
CCRF-CEM leukemia = test system: CCRF-CEM leukemia
HOP-62 NSCLC = test system: HOP-62 NSCLC
SK-OV-3 ovarian = test system: SK-OV-3 ovarian
MDA-MB-435 melanoma = test system: MDA-MB-435 melanoma
UACC-62 melanoma = test system: UACC-62 melanoma
SK-MEL-28 melanoma = test system: SK-MEL-28 melanoma
786-0 renal = test system: 786-0 renal
NCI-H522 lung = test system: NCI-H522 lung
RXF 393 renal = test system: RXF 393 renal
MDA-MB-231 breast = test system: MDA-MB-231 breast

## CCn1c(CO)nn(-c2cc(O[C@@H](C)C(F)(F)F)c(C(=O)Nc3c(F)cccc3Cl)cc2F)c1=O
NCI-H322M lung
  GI50: 9.92 µM
  TGI: > 100 µM
DU-145 prostate
  GI50: < 0.01 µM
  TGI: > 100 µM
HOP-92 NSCLC
  GI50: < 0.01 µM
  TGI: > 100 µM
NCI-H23 lung
  GI50: < 0.01 µM
  TGI: > 100 µM
OVCAR-5 ovarian
  GI50: < 0.01 µM
  TGI: > 100 µM
SNB-75 CNS
  GI50: 13.4 µM
  TGI: 79.2 µM
HT29 colon
  GI50: < 0.01 µM
  TGI: 62.6 µM
HCT-116 colon
  GI50: < 0.01 µM
  TGI: > 100 µM
NCI-H460 NSCLC
  GI50: < 0.01 µM
  TGI: 14.7 µM
HCT-15 colon
  GI50: < 0.01 µM
  TGI: > 100 µM
IGROV1 ovarian
  GI50: 2.22 µM
  TGI: > 100 µM
TK-10 renal
  GI50: < 0.01 µM
  TGI: > 100 µM
A549 NSCLC
  GI50: < 0.01 µM
  TGI: > 100 µM
NCI-H226 lung
  GI50: 17.6 µM
  TGI: > 100 µM
HL-60(TB) leukemia
  GI50: < 0.01 µM
  TGI: < 0.01 µM
LOX IMVI melanoma
  GI50: < 0.01 µM
  TGI: < 0.01 µM
SN12C renal
  GI50: < 0.01 µM
  TGI: > 100 µM
RPMI-8226 leukemia
  GI50: < 0.01 µM
  TGI: < 0.01 µM
MALME-3M melanoma
  GI50: < 0.01 µM
  TGI: > 100 µM
OVCAR-3 ovarian
  GI50: 20.8 µM
  TGI: > 100 µM
KM12 colon
  GI50: < 0.01 µM
  TGI: > 100 µM
EKVX NSCLC
  GI50: 63.4 µM
  TGI: > 100 µM
SNB-19 CNS
  GI50: 17.5 µM
  TGI: > 100 µM
HS 578T breast
  GI50: 15.2 µM
  TGI: > 100 µM
SW-620 colon
  GI50: < 0.01 µM
  TGI: 20.4 µM
UO-31 renal
  GI50: < 0.01 µM
  TGI: 28.8 µM
A498 renal
  GI50: 13.5 µM
  TGI: > 100 µM
UACC-257 melanoma
  GI50: 11.2 µM
  TGI: > 100 µM
SK-MEL-5 melanoma
  GI50: < 0.01 µM
  TGI: 18.8 µM
T-47D breast
  GI50: 7.65 µM
  TGI: 58.2 µM
CAKI-1 renal
  GI50: < 0.01 µM
  TGI: > 100 µM
SF-539 CNS
  GI50: 16.1 µM
  TGI: > 100 µM
ACHN renal
  GI50: < 0.01 µM
  TGI: > 100 µM
MOLT-4 leukemia
  GI50: < 0.01 µM
  TGI: < 0.01 µM
K-562 leukemia
  GI50: < 0.01 µM
  TGI: > 100 µM
SF-268 CNS
  GI50: < 0.01 µM
  TGI: < 0.01 µM
M14 melanoma
  GI50: < 0.01 µM
  TGI: 62.7 µM
OVCAR-8 ovarian
  GI50: < 0.01 µM
  TGI: > 100 µM
HCC-2998 colon
  GI50: 18.6 µM
  TGI: > 100 µM
BT-549 breast
  GI50: < 0.01 µM
  TGI: > 100 µM
NCI/ADR-RES ovarian
  GI50: < 0.01 µM
  TGI: 88 µM
OVCAR-4 ovarian
  GI50: 54.9 µM
  TGI: > 100 µM
COLO 205 colon
  GI50: < 0.01 µM
  TGI: > 100 µM
MCF7 breast
  GI50: < 0.01 µM
  TGI: 91.3 µM
U251 glioblastoma
  GI50: < 0.01 µM
  TGI: 30.7 µM
MDA-MB-468 breast
  GI50: < 0.01 µM
  TGI: 22.6 µM
CCRF-CEM leukemia
  GI50: < 0.01 µM
  TGI: 43 µM
HOP-62 NSCLC
  GI50: 6.85 µM
  TGI: > 100 µM
SK-OV-3 ovarian
  GI50: 22.7 µM
  TGI: > 100 µM
MDA-MB-435 melanoma
  GI50: < 0.01 µM
  TGI: > 100 µM
UACC-62 melanoma
  GI50: < 0.01 µM
  TGI: 70.2 µM
SK-MEL-28 melanoma
  GI50: < 0.01 µM
  TGI: 19.9 µM
786-0 renal
  GI50: < 0.01 µM
  TGI: 32.5 µM
NCI-H522 lung
  GI50: < 0.01 µM
  TGI: 84.5 µM
RXF 393 renal
  GI50: < 0.01 µM
  TGI: 12.3 µM
MDA-MB-231 breast
  GI50: < 0.01 µM
  TGI: > 100 µM
